Data published in patent publication US8415480B2, “Thiazolidine carboxamide derivatives as modulators of the prostaglandin F receptor” (Merck Serono SA, priority 2002, dated 2013).

Tests used:
[1] = biological target: T1, human Prostaglandin F2α receptor (Homo sapiens, UniProt P43088); test: In vitro competition binding assay on human Prostaglandin F2α receptor (Scintillation Proximity Assay, 3H PGF2-alpha radioligand); conditions: scintillation proximity competition binding assay against Prostaglandin F2α as radioligand; read-out: Binding affinity for human Prostaglandin F2α receptor Ki
T1 construct: Human Prostaglandin F2α receptor (full-length cDNA) was subcloned into the pCEP4; expressed in transfected cells; host or cells: HEK 293 EBNA cells (membrane preparation)
Text: The compounds of formula (II), were be subjected to the following in vitro and in vivo biological assays: • 1) In vitro competition binding assay on human Prostaglandin F2α receptor using a Scintillating Proximity Assay (SPA)
This assay allows to determine the binding affinity of the test compounds of formula (I) for the human Prostaglandin F2α receptor: […]
Human Prostaglandin F2α receptor (full-length cDNA) was subcloned into the pCEP4 (Invitrogen) vector and transfected together with the hygromycin resistance gene into HEK 293 EBNA cells by Calcium-phosphate co-precipitation method. Antibiotic resistant cells were grown under constant selection pressure in DMEM/F-12 medium supplemented with 2% fetal calf serum, 4 mM L-Glutamine and 8 ml/l Insulin-Transferrin-Selenium-mix (all Invitrogen) and 300 μg/ml hygromycin at 37° C. in a humidified atmosphere of 5% CO2 in air. At 48 h before harvesting, receptor expression was enhanced by adding 5 mM of Na-butyrate. Cells were washed twice with phosphate buffer saline, harvested and pelleted by centrifugation.
Cell pellet was lysed by Dounce homogenisation in 250 mM sucrose, 25 mM Tris-HCl pH 7.5, 10 mM MgCl2, 1 mM EDTA containing proteases inhibitors according to the manufacturer (Boehringer Mannheim) at 4° C. The lysate was centrifuged at 1000 g, 4° C. for 10 min and the supernatant was centrifuged at 160000 g, 4° C. for 60 min. The membranes pellets were resuspended in binding buffer (10 mM MES pH 6.2, 10 mM MgCl2, 1 mM EDTA containing proteases inhibitors), frozen in dry ice ethanol and stored at −80° C.
In vitro competition binding with Scintillation proximity assay (SPA) was performed in Corning NBS 96 wells plates. Briefly, 100 μl of binding buffer containing 15 to 30 μg of purified membranes, 4 mg/ml of wheat-germ agglutinin (WGA) SPA beads and 1 to 2 nM of ^3H PGF2-alpha (determined by Scatchard analysis) in 1% DMSO was incubated for 2 hours at room temperature. Non-specific binding was determined in the presence of 1 μM of non-radioactive Prostaglandin F2α. The concentrations of compounds (antagonist) used to compete with the radioactive ligand (agonist) were 10 μM, 3 μM, 1 μM, 300 nM, 100 nM, 30 nM, 10 nM, 1 nM, 100 pM, 10 pM. The radioactivity was counted on a Microbeta plate counter and the binding data were analysed using the iterative, non-linear, curve-fitting program, “Prism” (GraphPad Software, Inc).

[2] = system: uterine contractions in non-pregnant Sprague Dawley female rats; test: PGF2α or fluprostenol-induced uterine contractions in non-pregnant rats; format: in vivo, rat; conditions: 40 minutes after administration by i.v. route, cumulative dose of 30 mg/kg
Method: a) PGF2α or fluprostenol-induced uterine contractions in non-pregnant rats
Non-pregnant Sprague Dawley female rats (Charles River, Calco, Italy) weighing 200-300 g were used. They received an i.p. injection of 250 μg/kg diethylstilbestrol (DES) 18 and 24 hours before the experiment. On the day of the experiment, they were anaesthetized with urethane (1.05 g/kg, i.p.) and placed on a homeothermic operating table. The trachea was then isolated and cannulated with a suitable polyethylene (PE) tubing. A midline incision at the hypogastrium level was made, one uterine horn exposed and its tubal end closed (near the ovary) by a ligature with surgical silk. About 3 cm posteriorly to the first tie, the uterine horn wall was incited (close to the uterus body) and a PE240 tubing was inserted into the lumen and secured with surgical silk. After filling the internal cavity with 0.2 ml of sterile physiological saline solution, the catheter was connected to an amplifying/recording system (MacLab, ADInstruments Pty Ltd, Castle Hill, Australia) via a P23ID Gould Statham pressure transducer. One jugular vein was then isolated and cannulated with a PE60 catheter connected to a butterfly needle for the intravenous administration of Prostaglandin F2α (Sigma Chem. co., St. Louis, Mo., USA) and (±)fluprostenol (Cayman Chemicals, Ann Arbor, Mich., USA) or test compounds. […]

[3] = biological target: T1, human Prostaglandin F2α receptor; test: Inhibition of Prostaglandin F2α induced IP3 synthesis in HEK/EBNA cells expressing the Prostaglandin F2α receptor; format: cell-based; conditions: HEK EBNA cells expressing the human Prostaglandin F2α receptor; 30 nM PGF2α
Method: • 2) In vitro functional assay 1: Inhibition of Prostaglandin F2α induced IP3 (Inositol Triphosphate) Synthesis in HEK/EBNA-cells expressing the Prostaglandin F2α receptor
Cells were transfected by the calcium phosphate precipitation method with the appropriate plasmid and selected for hygromycinB resistance. The surviving colonies were assayed for their ability to retain specific [^3H] PGF2α binding. Selected clones were maintained in DMEM-F12 medium supplemented with 4 mM L-glutamine, 300 μg/ml hygromycinB and 2% fetal bovine serum (10% for cells expressing rFP).
Cells were detached with PBS/EDTA, washed with inositol-free DMEM-F12 medium and seeded at 80000 cells/well in a Poly-L-Lysine precoated 12 well plate. Cells were labelled with myo-[^3H] Inositol at 4 μCi/ml in inositol-free DMEM-F12 supplemented with 1% fetal bovine serum, 4 mM L-glutamine and 300 μg/ml hygromycinB. After 24 hours (rFP expressing cells) or 40 hours (hFP expressing cells), the medium was removed and cells were pre-incubated for 10 min in assay buffer (DMEM-F12 without Inositol, 20 mM Hepes, 0.1% BSA) containing 20 mM LiCl at 37° C. For agonist dose response, cells were then stimulated for 1 hour at room temperature with increasing concentration of PGF2α, in assay buffer. […] For agonist activity determination of the test compounds themselves, the test compounds were added to the cells at 10 μM and 1 μM for 1 hour at room temperature.
800 μl were then transferred to 400 μl of neutralizing solution (0.72N KOH, 0.6 M KHCO3), vortexed, and sedimented for at least 2 hours at 4° C. After centrifugation of 15 min. at 2500 g, 1 ml of the supernatant was loaded on a chromatography column, followed by two washes with 10 ml of water. The IP3 to be quantified were eluted with 3 ml elution buffer (1M ammonium formate, 0.1 M formic acid) and radioactivity was counted on a Beckman LS6000TA scintillation counter to measure the amount of phosphorylated [^3H] inositol.

[4] = biological target: T1, human Prostaglandin F2α receptor; test: Inhibition of Prostaglandin F2α induced Ca2+-mobilization in HEK/EBNA cells expressing the Prostaglandin F2α receptor (FLIPR); format: cell-based; conditions: HEK EBNA cells expressing the human Prostaglandin F2α receptor, 2 times the EC50 of Prostaglandin F2α
Method: • 3) In vitro functional assay 2: Inhibition of Prostaglandin F2α induced Ca^2′-mobilization in HEK/EBNA-cells expressing the Prostaglandin F2α receptor, as measured by FLIPR® (Fluorimetric Imaging Plate Reader).
HEK EBNA cells were seeded at 60000 cells/well in a Poly-L-Lysine precoated black/white bottom 96 well plate. […] Calcium mobilization was then measured on the FLIPR for 4 min. […] After the wash with FLIPR buffer, increasing concentrations of test compounds were added to the cells in FLIPR buffer and calcium mobilization was measured for 1 min.

[5] = system: spontaneous uterine contractions in late-term pregnant Sprague Dawley female rats; test: Spontaneous uterine contractions in late-term pregnant rats; format: in vivo, rat
Text: b) Spontaneous Uterine Contractions in Late-Term Pregnant Rats: • (i) Preparation of the Experiment:
Late-term pregnant (19-21 days of gestation) Sprague Dawley female rats (Charles River, Calco, Italy) weighing 350-400 g were anesthetized with urethane (1.05 g/kg, i.p.) and placed on a homeothermic operating table. The trachea was isolated and cannulated with a suitable polyethylene (PE) tubing. A midline incision at the hypogastrium level was made, one pregnant uterine horn exposed and its tubal end closed (near the ovary) by a ligature with surgical silk. In the correspondence of the last foetus near the above-mentioned ovary, the uterine horn wall was incited taking care not to injure the adjacent placenta, and a PE240 tubing with a latex balloon (9 mm length when empty, capacity 0.1 ml; Radnoti, Monrovia, Calif., USA) on the top was inserted into the lumen and secured with surgical silk. After filling the internal cavity of the latex balloon with 0.1 ml of sterile physiological saline solution, the catheter was connected to an amplifying/recording system (MacLab, ADInstruments Pty Ltd, Castle Hill, Australia) via a P23ID Gould Statham pressure transducer. […]
The spontaneous contractile response of the uterus was quantified by evaluating the area under the curve (AUC) of the changes in the intra-luminal uterine pressure over time (by Chart V4.04 for Windows software, PowerLab ADInstruments, Castle Hill, Australia). The effect of the test compound on the spontaneous uterine contraction was evaluated as the percent variation of the AUC calculated in a 10-min interval following the administration of each dose of test compound as compared to the AUC in a 10-min interval before the administration of the first dose of test compound (basal value). When possible, a dose-response curve (of peak effect) was plotted and the relative ED50 value calculated (by S-Plus 2000 v. 4.6 statistical software, Mathsoft, Inc. Seattle, Wash., USA).

T1 sequence (P43088 whole entry): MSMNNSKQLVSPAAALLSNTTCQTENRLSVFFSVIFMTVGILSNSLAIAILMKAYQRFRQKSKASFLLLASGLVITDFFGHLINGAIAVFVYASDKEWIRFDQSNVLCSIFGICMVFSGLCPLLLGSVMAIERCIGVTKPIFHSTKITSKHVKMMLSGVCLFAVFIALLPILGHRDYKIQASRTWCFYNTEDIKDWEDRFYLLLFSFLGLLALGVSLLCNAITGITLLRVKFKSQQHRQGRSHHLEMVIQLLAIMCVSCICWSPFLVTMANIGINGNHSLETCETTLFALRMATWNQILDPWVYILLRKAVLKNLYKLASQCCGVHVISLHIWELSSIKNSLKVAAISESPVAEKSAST

| SMILES | Ki [1] | also measured |
| --- | --- | --- |
| O=C(NCCc1ccccc1)NCc1ccc(CNC(=O)C2SCCN2S(=O)(=O)c2ccc(-c3ccon3)s2)cc1 (centres unmarked) [3-{[5-(3-isoxazolyl)-2-thienyl]sulfonyl}-N-{4-[({[(2-phenylethyl)amino]carbonyl}amino)methyl]benzyl}-1,3-thiazolidine-2-carboxamide] | 1100 nM |  |
| Cc1c(S(=O)(=O)N2CCSC2C(=O)N[C@@H](Cc2ccccc2)C(=O)O)sc2ccc(Cl)cc12 (stereo partly drawn) [(2S)-2-[({3-[(5-chloro-3-methyl-1-benzothien-2-yl)sulfonyl]-1,3-thiazolidine-2-yl}carbonyl)amino]-3-phenylpropanoic acid] | 330 nM |  |
| CCC(C)(C)c1ccc(S(=O)(=O)N2CCS[C@H]2C(=O)N[C@@H](CCO)c2ccccc2)cc1 [Example 10, (2S)—N-[(1S)-3-hydroxy-1-phenylpropyl]-3-[(4-tert-pentylphenyl)sulfonyl]-1,3-thiazolidine-2-carboxamide] | 120 nM |  |
| CN(CC[C@H](NC(=O)[C@@H]1SCCN1S(=O)(=O)c1ccc(-c2ccccc2)cc1)c1ccccc1)Cc1ccccc1 [Example 19] | 20 nM |  |
| CN(CCO)CC[C@H](NC(=O)[C@@H]1SCCN1S(=O)(=O)c1ccc(-c2ccccc2)cc1)c1ccccc1 [Example 21, (2S)-3-([1,1′-biphenyl]-4-ylsulfonyl)-N-{(1S)-3-[(2-hydroxyethyl)(methyl)-amino]-1-phenylpropyl}-1,3-thiazolidine-2-carboxamide] |  | IC50 [3]: 225 nM; IC50 [4]: 202 nM |
| O=C(N[C@H](c1ccccc1)c1ccccn1)[C@@H]1SCCN1S(=O)(=O)c1ccc(-c2ccccc2)cc1 [Example 62, (2S)-3-(1,1′-biphenyl-4-ylsulfonyl)-N—[(R)-phenyl(pyridin-2-yl)methyl]-1,3-thiazolidine-2-carboxamide] | 55 nM | IC50 [3]: 15 nM; IC50 [4]: 20 nM |

Continued, in another order:

| Ki [1] | SMILES | also measured |
| --- | --- | --- |
| 620 nM | O=C(NC(CCO)c1ccco1)C1SCCN1S(=O)(=O)c1ccc(-c2ccccc2)cc1 (centres unmarked) [3-([1,1′-biphenyl]-4-ylsulfonyl)-N-[1-(2-furyl)-3-hydroxypropyl]-1,3-thiazolidine-2-carboxamide] |  |
| 170 nM | O=C(NC(CN1CCCC1)c1ccccc1)C1SCCN1S(=O)(=O)c1ccc(-c2ccccc2)cc1 (centres unmarked) [3-([1,1′-biphenyl]-4-ylsulfonyl)-N-[1-phenyl-2-(1-pyrrolidinyl)ethyl]-1,3-thiazolidine-2-carboxamide] |  |
| 65 nM | O=C(N[C@@H](CCO)c1ccccc1)[C@@H]1SCCN1S(=O)(=O)c1ccc(-c2ccccc2)cc1 [Example 1, (2S)-3-([1,1′-biphenyl]-4-ylsulfonyl)-N-[(1S)-3-hydroxy-1-phenylpropyl]-1,3-thiazolidine-2-carboxamide] | inhibition of uterine contractions [2]: 26%; IC50 [3]: 185 nM; IC50 [4]: 48 nM; ED50 ([5]; Rattus norvegicus, iv, 10 min, i.v. infusion over 10 minutes, spontaneous uterine contractions, read-out: calculated ED50 value): 28 mg/kg; calculated ED50 value ([5]; i.v. infusion over 10 minutes, spontaneous uterine contractions): 2.8 mg/kg/min; inhibition of uterine contractions ([5]; i.v. route (infusion over 10 minutes), cumulative dose of 30 mg/kg): > 50% |
| 50 nM | O=C(NC(CCO)c1c(F)cccc1F)C1SCCN1S(=O)(=O)c1ccc(-c2ccccc2)cc1 (centres unmarked) [Example 14, 3-([1,1′-biphenyl]-4-ylsulfonyl)-N-[1-(2,6-difluorophenyl)-3-hydroxypropyl]-1,3-thiazolidine-2-carboxamide] |  |
| 1150 nM | CC(=O)NCCNCCC(NC(=O)C1SCCN1S(=O)(=O)c1ccc(-c2ccccc2)cc1)c1ccccc1 (centres unmarked) [N-(3-{[2-(acetylamino)ethyl]amino}-1-phenylpropyl)-3-([1,1′-biphenyl]-4-ylsulfonyl)-1,3-thiazolidine-2-carboxamide] |  |
